The EC50 is the concentration at which the effect is half-maximal.

Where two headings read alike, the source gives them in different places.

This assay has as its target T1, rat mGluR5 (Rattus norvegicus, UniProt P31424).
T1 construct: expressed in transfected cells; host or cells: human embryonic kidney (HEK) cells
Kind of assay: potentiation of mGluR5 response to glutamate, Ca2+ fluorescence (FDSS) in HEK cells transfected with rat mGluR5. To be noted: unit inferred. Type of assay: cell-based. The method, then:
Human embryonic kidney (HEK) cells transfected with rat mGluR5 were plated in clear bottom assay plates for assay in a Functional Drug Screening System (FDSS). The cells were loaded with a Ca^2+-sensitive fluorescent dye (e.g., Fluo-4), and the plates were washed and placed in the FDSS instrument. After establishment of a fluorescence baseline for twelve seconds, the compounds of the present invention were added to the cells, and the response in cells was measured. Five minutes later, an mGluR5 agonist (e.g., glutamate, 3,5-dihydroxyphenylglycine, or quisqualate) was added to the cells, and the response of the cells was measured. Potentiation of the agonist response of mGluR5 by the compounds in the present invention was observed as an increase in response to non-maximal concentrations of agonist (here, glutamate) in the presence of compound compared to the response to agonist in the absence of compound.
The above described assay operated in two modes. In the first mode, a range of concentrations of the present compounds were added to cells, followed by a single fixed concentration of agonist. If a compound acted as a potentiator, an EC50 value for potentiation and a maximum extent of potentiation by the compound at this concentration of agonist was determined by non-linear curve fitting. In the second mode, several fixed concentrations of the present compounds were added to various wells on a plate, followed by a range of concentrations of agonist for each concentration of present compound; the EC50 values for the agonist at each concentration of compound were determined by non-linear curve fitting. A decrease in the EC50 value of the agonist with increasing concentrations of the present compounds (a leftward shift of the agonist concentration-response curve) is an indication of the degree of mGluR5 potentiation at a given concentration of the present compound. An increase in the EC50 value of the agonist with increasing concentrations of the present compounds (a rightward shift of the agonist concentration-response curve) is an indication of the degree of mGluR5 antagonism at a given concentration of the present compound. The second mode also indicates whether the present compounds also affect the maximum response to mGluR5 to agonists.
Human embryonic kidney (HEK) cells transfected with rat mGluR5 were plated in clear-bottomed, poly-D-lysine-coated assay plates in glutamate-glutamine-free medium growth and incubated overnight at 37° C. in 5% CO2. The following day, cells were loaded with 2 μM calcium indicator dye, fluo-4 AM, for 1 h at 37° C. Dye was removed and replaced with assay buffer containing 1× Hanks balanced salt solution (Invitrogen, Carlsbad, Calif.), 20 mM HEPES, and 2.5 mM probenecid, pH 7.4. Cell plates were then loaded into the Functional Drug Screening System 6000 (FDSS 6000, Hamamatsu, Japan). After establishment of a fluorescence baseline for twelve seconds, the compounds of the present invention were added to the cells, and the response in cells was measured. Five minutes later, an mGluR5 agonist (e.g., glutamate, 3,5-dihydroxyphenylglycine, or quisqualate) was added to the cells, and the response of the cells was measured during a 1 minute incubation with agonists. Typically, the effect of test compounds of the present invention was on an EC20 concentration of glutamate was measured. All test compounds were dissolved and diluted in 100% DMSO and then serially diluted into assay buffer for a 2.5× stock in 0.25% DMSO; stock compounds were then added to the assay for a final DMSO concentration of 0.1%. Calcium fluorescence measures were recorded as fold over basal fluorescence; raw data was then normalized to the maximal response to agonist. Potentiation of the agonist response of mGluR5 by the compounds in the present invention was observed as an increase in response to non-maximal concentrations of agonist (here, glutamate) in the presence of compound compared to the response to agonist in the absence of compound. […]

[1] abbreviates: Table 1, EC50 for potentiating the mGluR5 receptor, read-out: EC50.
Setting [2] is: EC50, Table 1, EC50 for potentiating the mGluR5 receptor.

T1 sequence (P31424 21-1203): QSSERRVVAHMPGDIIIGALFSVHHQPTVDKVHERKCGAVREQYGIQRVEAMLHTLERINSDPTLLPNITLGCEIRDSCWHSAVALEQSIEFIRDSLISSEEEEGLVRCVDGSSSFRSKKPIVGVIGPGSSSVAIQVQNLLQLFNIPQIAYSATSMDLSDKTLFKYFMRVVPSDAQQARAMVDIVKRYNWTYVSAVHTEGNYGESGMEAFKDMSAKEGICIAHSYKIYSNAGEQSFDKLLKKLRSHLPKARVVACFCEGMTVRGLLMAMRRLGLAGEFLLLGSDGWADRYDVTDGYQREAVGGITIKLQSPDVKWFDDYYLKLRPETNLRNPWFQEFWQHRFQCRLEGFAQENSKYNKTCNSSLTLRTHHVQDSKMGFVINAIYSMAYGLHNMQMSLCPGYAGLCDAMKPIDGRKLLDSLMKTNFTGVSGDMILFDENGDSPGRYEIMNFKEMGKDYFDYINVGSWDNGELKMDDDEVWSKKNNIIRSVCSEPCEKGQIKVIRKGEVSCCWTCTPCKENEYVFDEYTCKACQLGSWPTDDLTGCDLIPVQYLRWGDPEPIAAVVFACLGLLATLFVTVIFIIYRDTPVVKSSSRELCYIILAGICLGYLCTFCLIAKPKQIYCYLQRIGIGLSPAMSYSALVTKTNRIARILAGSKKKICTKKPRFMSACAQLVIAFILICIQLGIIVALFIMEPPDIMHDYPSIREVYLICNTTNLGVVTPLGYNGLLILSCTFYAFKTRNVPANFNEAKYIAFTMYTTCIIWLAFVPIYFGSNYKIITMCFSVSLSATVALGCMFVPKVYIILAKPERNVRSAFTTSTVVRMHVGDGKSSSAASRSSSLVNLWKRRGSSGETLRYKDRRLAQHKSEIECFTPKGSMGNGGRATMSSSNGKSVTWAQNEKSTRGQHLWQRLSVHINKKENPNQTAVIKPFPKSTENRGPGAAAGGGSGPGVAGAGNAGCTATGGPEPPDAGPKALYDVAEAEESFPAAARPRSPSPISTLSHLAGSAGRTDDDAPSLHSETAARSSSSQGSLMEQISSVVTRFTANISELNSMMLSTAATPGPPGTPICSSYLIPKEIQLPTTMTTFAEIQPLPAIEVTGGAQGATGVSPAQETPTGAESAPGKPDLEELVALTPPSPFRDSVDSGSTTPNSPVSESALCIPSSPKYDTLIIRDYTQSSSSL

As for `N#Cc1ccccc1N1CCN(C(=O)c2ccc(C#Cc3ccccc3)cc2)CC1`, under setting [1], the 50% effective concentration (EC50) is 4200 nM.

With `O=C(c1ccc(C#Cc2ccccc2)cc1)N1CCC(n2c(=O)[nH]c3ccccc32)CC1` [1-(1-(4-(phenylethynyl)benzoyl)piperidin-4-yl)-1H-benzo[d]imidazol-2(3H)-one], the EC50 under setting [1] came out at 1470 nM.

Regarding `CC(=O)C1(c2ccccc2)CCN(C(=O)c2ccc(C#Cc3ccccc3)cc2)CC1` [1-(4-phenyl-1-(4-(phenylethynyl)benzoyl)piperidin-4-yl)ethanone], under setting [2], the EC50 turned out to be 1250 nM.

In the case of `COCCCNC(=O)c1ccc(-c2nc(-c3ccc(F)cc3)no2)cc1` [4-(3-(4-fluorophenyl)-1,2,4-oxadiazol-5-yl)-N-(3-methoxypropyl)benzamide], the EC50 under setting [1] worked out at 1120 nM.

In the case of `CCCNC(=O)c1ccc(-c2nc(-c3ccc(F)cc3)no2)cc1` [4-(3-(4-fluorophenyl)-1,2,4-oxadiazol-5-yl)-N-propylbenzamide], under setting [1], the EC50 stood at 2030 nM.

With `CCCNC(=O)c1ccc(-c2nc(-c3ccccc3)no2)cc1` [4-(3-phenyl-1,2,4-oxadiazol-5-yl)-N-propylbenzamide], under setting [1], the EC50 worked out at 2270 nM.

For the molecule `O=C(NCCN1CCCCC1)c1ccc(C#Cc2ccccc2)cc1` [4-(phenylethynyl)-N-(2-(piperidin-1-yl)ethyl)benzamide], the EC50 under setting [1] turned out to be 1790 nM.

Take `CCCNC(=O)c1ccc(C#Cc2ccccc2)cc1` [4-(phenylethynyl)-N-propylbenzamide]: the EC50 under setting [1] stood at 14.7 nM.

With `N#CC1(c2ccccc2)CCN(C(=O)c2ccc(C#Cc3ccccc3)cc2)CC1` [4-phenyl-1-(4-(phenylethynyl)benzoyl)piperidine-4-carbonitrile], the concentration giving a half-maximal response (EC50) under setting [2] was 1140 nM.

With `O=C(c1ccc(C#Cc2ccccc2)cc1)n1c(=O)n(C2CCNCC2)c2cc(Cl)ccc21` [5-chloro-1-(4-(phenylethynyl)benzoyl)-3-(piperidin-4-yl)-1H-benzo[d]imidazol-2(3H)-one], the EC50 under setting [1] was found to be 3720 nM.

On to `CC1CN(C(=O)c2ccc(C#Cc3ccccc3)cc2)CC(C)O1` (stereo not shown) [(2,6-dimethylmorpholino)(4-(phenylethynyl)phenyl)methanone], for which the EC50 under setting [1] was 88.9 nM.

Consider `O=C(c1ccc(C#Cc2ccccc2)cc1)N1CCCC(O)C1` (stereo not shown) [(3-hydroxypiperidin-1-yl)(4-(phenylethynyl)phenyl)methanone], for which the EC50 under setting [1] was 134 nM.

For the molecule `O=C(c1ccc(C#Cc2ccccc2)cc1)N1CCN(c2ccccc2F)CC1` [(4-(2-fluorophenyl)piperazin-1-yl)(4-(phenylethynyl)phenyl)methanone], the EC50 under setting [1] was 5140 nM.

Take `COCCNC1CCN(C(=O)c2ccc(C#Cc3ccccc3)cc2)CC1` [(4-(2-methoxyethylamino)piperidin-1-yl)(4-(phenylethynyl)phenyl)methanone]: the half-maximal effective concentration (EC50) under setting [1] was determined as 1190 nM.

On to `COc1ccccc1N1CCN(C(=O)c2ccc(C#Cc3ccccc3)cc2)CC1` [(4-(2-methoxyphenyl)piperazin-1-yl)(4-(phenylethynyl)phenyl)methanone], for which the EC50 under setting [1] was found to be 2100 nM.

`O=C(c1ccc(C#Cc2ccccc2)cc1)N1CCC(NCCN2CCOCC2)CC1` [(4-(2-morpholinoethylamino)piperidin-1-yl)(4-(phenylethynyl)phenyl)methanone]: the EC50 under setting [1] worked out at 383 nM.

Regarding `O=C(c1ccc(-c2nc(-c3ccc(F)cc3)no2)cc1)N1CCN(c2ccncc2)CC1` [(4-(3-(4-fluorophenyl)-1,2,4-oxadiazol-5-yl)phenyl)(4-(pyridin-4-yl)piperazin-1-yl)methanone], the EC50 under setting [1] amounted to 4210 nM.

Take `O=C(c1ccc(C#Cc2ccccc2)cc1)N1CCC(O)(c2ccc(Cl)cc2C(F)(F)F)CC1` [(4-(4-chloro-2-(trifluoromethyl)phenyl)-4-hydroxypiperidin-1-yl)(4-(phenylethynyl)phenyl)methanone]: under setting [1], the EC50 was determined as 477 nM.

`O=C(c1ccc(C#Cc2ccccc2)cc1)N1CCC(O)(c2ccc(Cl)cc2)CC1` [(4-(4-chlorophenyl)-4-hydroxypiperidin-1-yl)(4-(phenylethynyl)phenyl)methanone]: the EC50 under setting [1] was 6460 nM.

`CN1CCN(C2CCN(C(=O)c3ccc(C#Cc4ccccc4)cc3)CC2)CC1` [(4-(4-methylpiperazin-1-yl)piperidin-1-yl)(4-(phenylethynyl)phenyl)methanone]: under setting [1], the EC50 was determined as 132 nM.

`O=C(c1ccc(C#Cc2ccccc2)cc1)N1CCC(N2CCC2)CC1` [(4-(azetidin-1-yl)piperidin-1-yl)(4-(phenylethynyl)phenyl)methanone]: the EC50 under setting [1] was determined as 1110 nM.

In the case of `O=C(c1ccc(C#Cc2ccccc2)cc1)N1CCC(NC2CCC2)CC1` [(4-(cyclobutylamino)piperidin-1-yl)(4-(phenylethynyl)phenyl)methanone], the EC50 under setting [1] came to 212 nM.

For `O=C(c1ccc(C#Cc2ccccc2)cc1)N1CCC(NC2CCCCC2)CC1` [(4-(cyclohexylamino)piperidin-1-yl)(4-(phenylethynyl)phenyl)methanone], under setting [1], the EC50 worked out at 78 nM.

With `O=C(c1ccc(C#Cc2ccccc2)cc1)N1CCC(NCC2CC2)CC1` [(4-(cyclopropylmethylamino)piperidin-1-yl)(4-(phenylethynyl)phenyl)methanone], under setting [1], the EC50 turned out to be 2790 nM.

As for `CCCC(C)NC1CCN(C(=O)c2ccc(C#Cc3ccccc3)cc2)CC1` (stereo not shown) [(4-(pentan-2-ylamino)piperidin-1-yl)(4-(phenylethynyl)phenyl)methanone], under setting [1], the EC50 came out at 59.5 nM.

Take `O=C(c1ccc(C#Cc2ccccc2)cc1)N1CCC(N2CCN(c3ccncc3)CC2)CC1` [(4-(phenylethynyl)phenyl)(4-(4-(pyridin-4-yl)piperazin-1-yl)piperidin-1-yl)methanone]: the EC50 under setting [1] was determined as 113 nM.

In the case of `O=C(c1ccc(C#Cc2ccccc2)cc1)N1CCN(c2ccccn2)CC1` [(4-(phenylethynyl)phenyl)(4-(pyridin-2-yl)piperazin-1-yl)methanone], the EC50 under setting [1] is 2920 nM.

Consider `O=C(c1ccc(C#Cc2ccccc2)cc1)N1CCN(c2ccncc2)CC1` [(4-(phenylethynyl)phenyl)(4-(pyridin-4-yl)piperazin-1-yl)methanone], for which the EC50 under setting [1] worked out at 3680 nM.

As for `O=C(c1ccc(C#Cc2ccccc2)cc1)N1CCC(N2CCCC2)CC1` [(4-(phenylethynyl)phenyl)(4-(pyrrolidin-1-yl)piperidin-1-yl)methanone], the EC50 under setting [1] was 3730 nM.

As to `O=C(c1ccc(C#Cc2ccccc2)cc1)N1CCN(c2ccccc2)CC1` [(4-(phenylethynyl)phenyl)(4-phenylpiperazin-1-yl)methanone], the EC50 under setting [1] turned out to be 2060 nM.

As to `O=C(c1ccc(C#Cc2ccccc2)cc1)N1CCNCC1` [(4-(phenylethynyl)phenyl)(piperazin-1-yl)methanone], the 50% effective concentration (EC50) under setting [1] was 4790 nM.

Turning to `O=C(c1ccc(C#Cc2ccccc2)cc1)N1CCC(O)(c2ccccc2)CC1` [(4-hydroxy-4-phenylpiperidin-1-yl)(4-(phenylethynyl)phenyl)methanone], the EC50 under setting [1] came to 3660 nM.

For the molecule `CC(C)N1CCN(C(=O)c2ccc(C#Cc3ccccc3)cc2)CC1` [(4-isopropylpiperazin-1-yl)(4-(phenylethynyl)phenyl)methanone], under setting [1], the 50% effective concentration (EC50) turned out to be 1190 nM.

Consider `CN1CCN(C(=O)c2ccc(C#Cc3ccccc3)cc2)CC1` [(4-methylpiperazin-1-yl)(4-(phenylethynyl)phenyl)methanone], for which the EC50 under setting [1] stood at 166 nM.

For `O=C(c1ccc(/C=C/c2ccccc2)cc1)N1CCC(O)CC1` [(E)-(4-hydroxypiperidin-1-yl)(4-styrylphenyl)methanone], under setting [1], the EC50 stood at 1970 nM.

Consider `C[C@@H](CNC(=O)c1ccc(C#Cc2ccccc2)cc1)c1ccccc1` [(R)-4-(phenylethynyl)-N-(2-phenylpropyl)benzamide], for which the EC50 under setting [1] was determined as 34.9 nM.

For the molecule `C[C@H](NC1CCN(C(=O)c2ccc(C#Cc3ccccc3)cc2)CC1)C1CCCCC1` [(S)-(4-(1-cyclohexylethylamino)piperidin-1-yl)(4-(phenylethynyl)phenyl)methanone], the EC50 under setting [1] was determined as 129 nM.

The values are drawn from patent publication US8853392B2, “Benzamide mGluR5 positive allosteric modulators and methods of making and using same” (Vanderbilt University, priority 2007, dated 2014).
